In patent US8518882B2, “Methods and compositions for ameliorating or inhibiting decline in memory or intelligence or improving same” (priority 1998, dated 2013):

What was measured:
[1] = tested on: CDP-choline levels in the brain; experiment: Brain CDP-choline levels after oral UMP in gerbils; type: in vivo; conditions: UMP 1 mmole/kg by gavage, for 30 min, r=0.98, p<0.02
Procedure: Data was pooled from three experiments, with group sizes ranging from 5 to 16 animals. Male gerbils (60-80 g) were given UMP (1 mmole/kg body weight) by gavage and sacrificed at the indicated times. After brain homogenization, protein precipitation, and lyophilization as described for Example 3, samples were analyzed by HPLC-UV.
Brain tissue or cells was dissolved in methanol/chloroform (1:2 vol/vol), centrifuged, and the aqueous phase was dried under vacuum, resuspended in 100-200 μL water and separated by HPLC on an ion-exchange column (Alltech Hypersil APS-2, 5 μM, 250×4.6 mm). CDP-choline was eluted with a linear gradient of NaH2PO4 buffers A (1.75 mM NaH2PO4, pH 2.9) and B (500 mM, pH 4.5), which allowed resolution of CDP-choline from closely co-eluting substances such as UMP over 40 min. The retention time for CDP-choline was 9.5 min. Individual nucleotide peaks were detected by UV absorption at […], and were identified by comparison with the positions of authentic standards, as well as by the addition of nucleotide standards to selected samples.

[2] = tested on: Aging rats; experiment: Morris water maze in aging rats on UMP diet; type: in vivo; conditions: 2.5% diet for six weeks
Source text: Aging rats (18 months, 500 g) were fed a control diet or a diet containing 2.5% UMP diets for six weeks. They were then shown a hidden platform in a six-foot diameter pool of water, placed somewhere in each of the four quadrants of the pool in turn, and were allowed 90 seconds in each trial to attempt to relocate the platform by swimming, and the swimming time “mean escape latency” recorded. The set of four trials was repeated on each of four consecutive days. The platform was in the same place each day. This test, known as the Morris water maze, is an indicator of spatial memory.

[3] = tested on: gerbils; experiment: Radial arm maze food pellet learning assay in gerbils; type: in vivo; conditions: gerbils, 0.1, 0.5 or 2.5% UMP chow for three weeks
Procedure: Male young adult gerbils fed control or UMP-containing chow (0, 0.1, 0.5 or 2.5%) ad lib for three weeks were tested in a radial arm maze, consisting of a central chamber with four branches primed with a small food pellet at the end of each. Before testing, animals were fasted overnight; each animal was then placed in the central chamber and allowed up to 180 seconds to find all of the pellets. A shorter time required to find the pellets is indicative of improved learning and spatial memory.

[4] = Body weight of EC and IC rats on UMP diet; type: in vivo, Sprague Dawley rats; conditions: 0.1% UMP-2Na+ diet vs control groups
Procedure: Animals were maintained under standard environmental conditions (room temperature, 20-25° C.; relative humidity, 55-60%; light/dark schedule, 12/12). Seven pregnant Sprague Dawley rats (Charles River Laboratories) were obtained 1 wk prior to giving birth. […] At this time, thirty-two rats were matched according to body weight, and assigned to either IC or EC conditions.
Rats were housed in the same rack in plastic cages (52×32×20 cm high) with wire lids. Bedding and water were regularly changed, and animals were weighed each week, at which time general health assessments were made. Animals had ad libitim access to chow and water. EC rats were housed in groups of 2-3 animals Plastic toys (blocks, balls, PVC tubing, etc) placed in the EC cages were rotated between groups weekly; new toys were introduced monthly EC rats were taken to a “playroom” (12×6 ft; containing cabinets, desks, chairs, boxes, and toys) every other day for 45 min. The IC rats were housed individually, without toys, and handled three times per week to acclimatize the animals to experimenter handling and in order to alleviate fear and anxiety in subsequent behavioral training procedures. To avoid the typical weight gain caused by impoverished conditions (relative to enriched rats), IC rats were allowed to exercise three times per week for 15 min in an empty 4×6 ft room with only the experimenter present. […]

O=c1ccn([C@@H]2O[C@H](COP(=O)([O-])[O-])[C@@H](O)[C@H]2O)c(=O)[nH]1.[Na+].[Na+] [UMP, uridine-5′-monophosphate disodium]
Brain CDP-choline levels [1]: rose significantly in a linear fashion | Time required to reach the platform (mean escape latency) [2]: statistically significant reduction in the time required to reach the location of the platform | Time required to find the pellets [3]: reduced the time required for gerbils to find the pellet in a dose-dependent manner | Mean body weights [4]: No significant differences
